Test results from EP2886531B1, “Aspartic acid derivatives” (Merck Patent GmbH, priority 2013, dated 2015).

Experiments:
[1] = Prolonged piperidine treatment at 60°C of VKDRYI peptide resin (aspartimide formation); type: physicochemical; conditions: for D/L-Asu [%] / piperidides [%]: 20% piperidine in DMF at 60°C, 200 minutes; for target [%]: target peptide VKDRYI, 20% piperidine in DMF at 60°C over 200 minutes, 100 Fmoc removal cycles
Method: (§1) Automated peptide synthesis, piperidine treatments of the resin samples and final TFA cleavages are performed as described in the protocols of example 4. In addition, to evaluate the advantage of the protecting groups used in this invention in heat accelerated SPPS we treat 50 mg peptide resin samples with a solution of 20% piperidine in DMF at 60°C over 200 minutes. Microwave assisted peptide synthesis conditions are often used to shorten peptide synthesis times and increase coupling reaction and Fmoc deprotection.
The application of microwave heating to SPPS is accelerating coupling and deprotection reactions leading to shorter cycle times, higher repetitive yields, and ultimately purer peptides. On the other hand, microwave energy can also lead to increased levels of aspartimide by-products. To overcome that drawback we evaluated the advantage of the side-chain protections used in this invention by exposing the peptide resins to Fmoc removal cycles at 60 degrees Celsius.
In table 5 the amounts of by-products formed after the prolonged exposure of the peptide resins to piperidine at 60 degree Celsius (100 Fmoc removal cycles) are summarized for all side-chain protections used in this invention. […] Table 5: Results after 100 Fmoc removal cycles using piperidine at 60°C, target peptide sequence = VKDRYI, the aspartimide (Asu) derived by-products are the aspartimide itself and the sum of piperidides

[2] = Prolonged piperidine treatment of VKDNYI peptide resin (aspartimide formation, Asp-Asn motif); type: physicochemical; conditions: for D/L-Asu [%] / piperidides [%] / target [%]: 110 Fmoc removal cycles; for target [%]: target peptide VKDNYI
Method: (§2) Automated peptide synthesis, piperidine treatments of the resin samples and final TFA cleavages are performed as described in the protocols of example 4. In addition, 50 mg peptide resin samples are treated with a solution of DBU/piperidine/DMF (1:19:79) over 225 minutes to investigate the aspartimide formation at harsher Fmoc deprotection conditions often used for complete Fmoc removals in aggregation prone sequences.
(§3) The resulting peptide samples are analysied and all relevant impurities identified by UPLC-MS analysis (Xevo Waters Q-TOF-1, lock mass = 556.277 (leu-enkephaline), LC-conditions: CHS 18 1,7 µm (100x2.1 mm) at 40°C; water acetonitrile gradient of 5% to 35 % B over 10 min where buffer A is 0.1 % formic acid in water and buffer B is 0.1 % formic acid in acetonitrile, flow 0.6 ml/min).
In table 2 the amounts of by-products formed after the prolonged exposure of the peptide resins to piperidine (110 Fmoc removal cycles) are summarized for all side-chain protections used in this invention. […] Table 2: Results after 110 Fmoc removal cycles using piperidine, target peptide = VKDNYI, the aspartimide (Asu) derived by products are the aspartimide itself and the sum of piperidides

[3] = Prolonged piperidine treatment of VKDRYI peptide resin (aspartimide formation, Asp-Arg motif); type: physicochemical; conditions: for D/L-Asu [%] / piperidides [%] / target [%]: 110 Fmoc removal cycles; for target [%]: target peptide VKDRYI
Method: as §1
In table 4 the amounts of by-products formed after the prolonged exposure of the peptide resins to piperidine (110 Fmoc removal cycles) are summarized for all side-chain protections used in this invention. Table 4: Results after 110 Fmoc removal cycles using piperidine, target peptide sequence = VKDRYI, the aspartimide (Asu) derived by-products are the aspartimide itself and the sum of piperidides

[4] = Prolonged DBU treatment of VKDNYI peptide resin (aspartimide formation); type: physicochemical; conditions: for D/L-Asu [%] / piperides [%]: DBU/piperidine/DMF (1:19:79), 225 minutes; for target [%]: target peptide VKDNYI, DBU/piperidine/DMF (1:19:79) over 225 minutes, 110 Fmoc removal cycles
Method: as §2, §3
In table 3 the amounts of by-products formed after prolonged DBU treatments are summarized for all side-chain protections used in this invention. […] Since the DBU mediated Fmoc removals are much quicker than the piperidine mediated, this experiment again represents a Fmoc SPPS assembly of an 100mer after introducing the aspartic acid residue using exclusively DBU for Fmoc cleavage. Table 3: Results after 110 Fmoc removal cycles using DBU, target peptide = VKDNYI, the aspartimide (Asu) derived by-products are the aspartimide itself and the sum of piperidides

[5] = Prolonged piperidine treatment of VKDGYI peptide resin (aspartimide formation, Asp-Gly motif)
[6] = Prolonged treatment of VKDGYI peptide resin with 1 M Oxyma Pure and 20 % piperidine (aspartimide formation); type: physicochemical; conditions: for Asu per 10' cycle / Asu [%] / piperidides [%]: Oxyma Pure +; for Asu [%] / piperidides [%] / target [%]: 18 hours; for target [%]: Oxyma Pure +: 1 M Oxyma Pure and 20 % piperidine in dimethylformamide
Method: [drawing 14] 50 mg samples of the corresponding aspartic acid derivatives of example 4 are treated over 18 hours with a solution of 1 M Oxyma Pure and 20 % piperidine in dimethylformamide. The peptides are cleaved off the resin with 95 % TFA and analysed with HPLC as well as MS to identify all aspartimide related products (conditions see example 4). The results are summarized in table 6: Table 6: Results after 110 Fmoc removal cycles using an acidic modifier in the piperidine mediated Fmoc removal cocktails, target peptide = VKDG YI, the aspartimide derived by-products are the aspartimide itself and the sum of piperidides

[7] = VKDGYI, 20 % piperidine in dimethylformamide
[8] = VKDGYI, 20 % piperidine in dimethylformamide, 18 hours, aspartimide
[9] = VKDGYI, 20 % piperidine in dimethylformamide, 18 hours, sum of piperidides
[10] = VKDGYI, Oxyma Pure -: 20 % piperidine only, 18 hours (as Table 1)
[11] = target peptide VKDGYI, 20 % piperidine in dimethylformamide over 18 hours, 110 Fmoc removal cycles
[12] = VKDGYI, 1 M Oxyma Pure in 20 % piperidine

Half-life in cycles [1] [cycles] | D/L-Asu [%] ([1]; VKDRYI) | piperidides [%] ([1]; VKDRYI) | Asu per 10' cycle ([1]; VKDRYI, piperidine at 60°C) | target [%] [1] [%] | Asu per 10' cycle ([2]; VKDNYI, piperidine) | D/L-Asu [%] ([2]; VKDNYI, piperidine) | piperidides [%] ([2]; VKDNYI, piperidine) | target [%] ([2]; piperidine) | Asu per 10' cycle ([3]; VKDRYI) | Half-life in cycles ([3]; VKDRYI) [cycles] | D/L-Asu [%] ([3]; VKDRYI) | piperidides [%] ([3]; VKDRYI) | target [%] [3] [%] | Asu per 2' cycle ([4]; VKDNYI, DBU) | D/L-Asu [%] ([4]; VKDNYI) | piperides [%] ([4]; VKDNYI) | target [%] [4] [%] | Asu per 10' cycle [%] [5, 7] [%] | Asu [%] [5, 8] [%] | SMILES | also measured
718 | 4.9 | 4.3 | 0.1 | 90.8 | 0.04 | 0.9 | 3.6 | 95.5 | 0.06 | 1202 | 2.6 | 3.6 | 93.8 | 0.3 | 3.5 | 22.0 | 74.5 | – | – | CCCCC(CCCC)(CCCC)OC(=O)C[C@H](NC(=O)OCC1c2ccccc2-c2ccccc21)C(=O)O [Bno] | aspartimide side reaction during the Fmoc removals, rate per cycle ([2]; VKDNYI, piperidine): 0.05%; aspartimide side reaction during the Fmoc removals per cycle ([3]; VKDRYI): less than 0.06%; aspartimide formation per 2 minute Fmoc removal cycle ([4]; VKDNYI, DBU): less than 0.3%
439 | 7.8 | 6.8 | 0.2 | 85.4 | 0.2 | 3.0 | 16.0 | 81.0 | 0.1 | 539 | 3.90 | 9.4 | 86.7 | 0.5 | 5.6 | 37.3 | 57.1 | 0.4 | 4.1 | CCC(CC)(CC)OC(=O)C[C@H](NC(=O)OCC1c2ccccc2-c2ccccc21)C(=O)O [Epe, (2S)-N-((9H-fluoren-9-ylmethyloxy)carbonyl)aspartic acid-4-((3-ethyl)pent-3-yl) ester] | aspartimide by-products per cycle ([1]; VKDRYI, piperidine at 60 degrees Celsius): 0.2%; Half-life in cycles [2]: 365 cycles; piperidides [%] [5, 9]: 31.5%; Asu [%] ([5]; VKDGYI, Oxyma Pure -): 4.1%; Asu per 10' cycle ([5]; VKDGYI, Oxyma Pure -): 0.4; piperidides [%] ([5]; VKDGYI, Oxyma Pure -): 31.5%; target [%] [5, 10]: 64.4%; minimizes the aspartimide formation by a factor compared to Mpe ([5]; VKDGYI, relative to Mpe protection): two; target [%] [5, 11]: 64.4%; Asu per 10' cycle ([6]; VKDGYI): 0.14; Asu [%] ([6]; VKDGYI): 2.6%; piperidides [%] ([6]; VKDGYI): 11.7%; target [%] ([6]; VKDGYI): 85.7%; Half-life in cycles [4]: 138 cycles
– | 28.7 | 41.0 | 1.2 | 30.3 | 1.6 | 4.9 | 79.0 | 16.1 | 1.3 | 55 | 16.9 | 58.4 | 24.7 | 5.2 | 2.6 | 97.1 | 0.3 | 2.3 | 6.4 | CC(C)(C)OC(=O)C[C@H](NC(=O)OCC1c2ccccc2-c2ccccc21)C(=O)O [tBu, Fmoc-Asp(OtBu)-OH, reference compound] | Half-life in cycles ([1]; VKDRYI, piperidine at 60°C): 58 cycles; Half-life in cycles ([2]; VKDNYI, piperidine): 40 cycles; Half-life in 10' cycles [5, 7]: 30 10' cycles; piperidides [%] [5, 9]: 85.6%; Asu [%] ([5]; VKDGYI, Oxyma Pure -): 6.4%; Asu per 10' cycle ([5]; VKDGYI, Oxyma Pure -): 2.3; piperidides [%] ([5]; VKDGYI, Oxyma Pure -): 85.6%; target [%] [5, 10]: 8.0%; target [%] [5, 11]: 8.0%; Asu per 10' cycle ([6]; VKDGYI): 0.45; Asu [%] ([6]; VKDGYI): 8.8%; piperidides [%] ([6]; VKDGYI): 30.1%; target [%] ([6]; VKDGYI): 61.1%; Half-life in cycles ([4]; VKDNYI, DBU, 2' cycles): 13 cycles
532 | 7.1 | 5.1 | 0.1 | 87.8 | 0.09 | 1.0 | 8.2 | 90.8 | 0.08 | 845 | 3.2 | 5.5 | 91.3 | 0.4 | 3.3 | 25.7 | 71.0 | 0.2 | 2.9 | CCCC(CCC)(CCC)OC(=O)C[C@H](NC(=O)OCC1c2ccccc2-c2ccccc21)C(=O)O [Php, (2S)-N-((9H-fluoren-9-ylmethyloxy)carbonyl)aspartic acid-4-(4-(n-propyl)hept-4-yl) ester] | Half-life in cycles [2]: 800 cycles; half-life of the target peptide increased, in respect of Mpe ([5]; VKDGYI, Asp-Gly sequence, relative to Mpe protection): 4 fold; half-life of the target peptide increased, instead of tBu ([5]; VKDGYI, Asp-Gly sequence, relative to tBu protection): more than 10 fold; piperidides [%] [5, 9]: 16.5%; Asu [%] ([5]; VKDGYI, Oxyma Pure -): 2.9%; Asu per 10' cycle ([5]; VKDGYI, Oxyma Pure -): 0.2; piperidides [%] ([5]; VKDGYI, Oxyma Pure -): 16.5%; target [%] [5, 10]: 80.6%; target [%] [5, 11]: 80.6%; aspartimide side reaction ([6]; Asp-Gly sequence, Fmoc removal solution of 1 M Oxyma Pure in piperidine/DMF 1:4): nearly inhibits the apartimide side reaction; aspartimide derived by-products per Fmoc removal [6, 12]: 0.05%; half-life [6, 12]: greater than 1500 cycles; Asu per 10' cycle ([6]; VKDGYI): 0.04; Asu [%] ([6]; VKDGYI): 1.3%; piperidides [%] ([6]; VKDGYI): 3.3%; target [%] ([6]; VKDGYI): 95.4%; Half-life in cycles [4]: 192 cycles
